According to the NIST ThermoML archive (doi:10.1016/j.jct.2011.02.018):

Assay: xn = mol fraction of the nth substance listed
Details: 101 kPa, Liquid; for viscosity: Concentric cylinders viscometry; for mass density: Vibrating tube method

COC(C)(C)C [2-methoxy-2-methylpropane] + CCCO
Details	mass density, 293.15 K [kg/m3]	mass density, 298.15 K [kg/m3]	mass density, 303.15 K [kg/m3]	mass density, 308.15 K [kg/m3]	viscosity, 293.15 K [mPa·s]	viscosity, 298.15 K [mPa·s]	viscosity, 303.15 K [mPa·s]	viscosity, 308.15 K [mPa·s]
x1 = 0.0126	802.92	798.92	794.86	790.76	2.139	1.886	1.676	1.494
x1 = 0.0219	802.2	798.21	794.13	790.02	2.069	1.832	1.631	1.456
x1 = 0.0298	801.64	797.61	793.53	789.4	2.014	1.79	1.594	1.424
x1 = 0.0403	800.81	796.7	792.61	788.45	1.948	1.735	1.548	1.386
x1 = 0.05	800.12	796.03	791.93	787.77	1.885	1.683	1.502	1.347
x1 = 0.0599	799.4	795.34	791.21	787.04	1.835	1.635	1.462	1.309
x1 = 0.0699	798.72	794.62	790.47	786.28	1.78	1.589	1.429	1.276
x1 = 0.0798	798.25	794.12	789.92	785.72	1.736	1.552	1.391	1.252
x1 = 0.09	797.26	793.05	788.85	784.63	1.67	1.492	1.338	1.203
x1 = 0.1003	796.41	792.28	788.08	783.85	1.627	1.459	1.301	1.181
x1 = 0.1495	793.03	788.85	784.61	780.3	1.412	1.275	1.151	1.042
x1 = 0.1999	789.56	785.28	780.94	776.55	1.234	1.119	1.016	0.9225
x1 = 0.25	786.15	781.8	777.38	772.92	1.089	0.9917	0.9045	0.8231
x1 = 0.3003	782.74	778.33	773.84	769.32	0.9663	0.8841	0.809	0.7398
x1 = 0.35	779.47	774.99	770.45	765.85	0.8694	0.7946	0.7291	0.6694
x1 = 0.4015	776.15	771.6	766.99	762.32	0.7809	0.721	0.6608	0.6082
x1 = 0.4585	772.51	767.88	763.21	758.45	0.6993	0.6452	0.5966	0.5495
x1 = 0.5002	769.91	765.22	760.49	755.68	0.6508	0.6047	0.5568	0.5119
x1 = 0.5505	766.88	762.1	757.3	752.42	0.5953	0.5528	0.5121	0.4715
x1 = 0.5994	763.94	759.14	754.28	749.34	0.5508	0.52	0.4831	0.4457
x1 = 0.6475	761.06	756.21	751.27	746.28	0.5181	0.4813	0.4499	0.4153
x1 = 0.7026	757.85	752.93	747.92	742.86	0.4767	0.4449	0.4145	0.3818
x1 = 0.7536	754.92	749.92	744.86	739.74	0.4509	0.4165	0.3944	0.3602
x1 = 0.8033	752.01	747.01	741.89	736.72	0.4202	0.3922	0.3655	0.3345
x1 = 0.8471	749.51	744.41	739.24	734.04	0.4014	0.375	0.3506	0.3255
x1 = 0.9007	746.4	741.27	736.06	730.79	0.3802	0.3537	0.3303	0.308
x1 = 0.9107	745.77	740.64	735.41	730.13	0.3705	0.3499	0.3277	0.302
x1 = 0.9185	745.32	740.18	734.94	729.65	0.3679	0.3536	0.3317	0.3014
x1 = 0.9282	744.76	739.61	734.37	729.07	0.3645	0.3411	0.3205	0.2934
x1 = 0.94	744.07	738.91	733.65	728.34	0.3597	0.3383	0.3153	0.295
x1 = 0.9493	743.55	738.35	733.09	727.78	0.3573	0.3241	0.3106	0.2879
x1 = 0.9599	742.94	737.74	732.47	727.15	0.3554	0.3246	0.3102	0.2939
x1 = 0.9698	742.37	737.19	731.91	726.58	0.349	0.329	0.3092	0.2843
x1 = 0.9796	741.82	736.64	731.35	726.01	0.3454	0.3252	0.3054	0.2803
x1 = 0.9882	741.32	736.14	730.84	725.49	0.344	0.3242	0.3046	0.2819
